Laboratory results published in patent EP2664619B1, “Purine derivatives as tools for screening anti-Alzheimer compounds” (Manros Therapeutics, priority 2012, dated 2013).

Legend:
Aβ42 production = assay: Sandwich ELISA measurement of Aβ42 levels in supernatant of treated N2a-APP695 cells; format: cell-based, Mouse; conditions: N2a-APP695 cells; for EC50: Mus musculus, 18h incubation, ELISA assay, read-out: EC50 (µM) at inducing Aβ42 production
Method: Mouse neuroblastoma cells (N2a cells) or N2a-APP695 cells (N2a cell line stably transfected with APP695, an amyloid precursor protein) were cultured in an essential medium composed of Dulbecco's minimal essential medium (DMEM) and of OptiMEM® (1:1, v/v) (Gibco®) containing 0.2 mg/mL Geniticin (Geneticin® Selective Antibiotic, Gibco®) and 5 % fetal bovine serum (FBS, Gibco®, EU approved origin) in a humidified, 5% CO2 incubator at 37°C. Routinely, cells were split without use of Trypsin every 4/5 days. They were first rinsed with PBS (Gibco) and detached from the plate bottom using 4 mL Versene (Gibco) at room temperature for 3-4 min. 8 mL of fresh medium were added to the cell suspension, and the mix was centrifuged for 3 min at 1,000 rpm. The cell pellet was resuspended in fresh medium before seeding (1/10 dilution) in new flasks.
The N2a-APP695 cells were seeded at 10.000 cells/well in a 96 well plate with modified media (0.5% FBS) and incubated overnight. Cells were treated with fresh media comprising different compounds according to the invention (equal quantity of DMSO sold by Sigma®). They were then incubated for 18h in a humidified, 5% CO2 incubator.
Purines according to the invention were added at various concentrations to N2a-APP695.
The plate was finally centrifuged to remove cell fragments before collecting supernatant samples for amyloids levels determination.
Then, Aβ38, Aβ40 and Aβ42 levels were measured in a sandwich ELISA (Enzyme-Linked ImmunoSorbent Assay) using a combination of monoclonal antibody 6E10 (mAb 6E10) (sold by Covance® under the reference SIG-39320) and biotinylated polyclonal Aβ38, Aβ40 or Aβ42 antibodies (provided by Dr. P.D. Mehta, IBR, Staten Island, USA).
A solution of 100 µl mAb 6E10 diluted in carbonate-bicarbonate buffer, pH 9.6, was coated in the wells of microtiter plates (Maxisorp™ sold by Nunc®) and incubated at 4°C overnight. The plates were then washed with PBST (PBS tablets sold by Gibco®) containing 0.05% Tween-20 (Sigma®), and blocked for 1 h with 1% BSA (Sigma®) in PBST (PBS tablets sold by Gibco®) containing 0.05 Tween-20 (Sigma®) to avoid nonspecific binding.
Following a washing step, samples were added and incubated for 2 hours at room temperature (RT) and then at 4°C overnight. Plates were then washed before incubation with biotinylated polyclonal antibody diluted in PBST (PBS tablets sold by Gibco®) containing 0.05 Tween-20 (Sigma®) + 0.5% BSA at room temperature for 75 minutes.
After a washing step, streptavidin-horseradish peroxidase conjugate (Streptavidin poly-HRP, Thermo Scientific Pierce®), diluted in PBS + 1% BSA, was added and incubation was carried out for 45 min at room temperature. After washing, 100 µl of o-phenylenediamine dihydrochloride (OPD tablets, Invitrogen®) diluted in citrate buffer pH 5.0 were added. The reaction was stopped after 15 min with the addition of 100 µl 1 N sulfuric acid.
A range of known concentrations of Aβ38, Aβ40 and Aβ42, ranging from 0.01 to 10 ng/mL for Aβ38 and Aβ42, and ranging from 0.001 to 10 ng/mL for Aβ40, were use as a reference scale to determine the concentrations of Aβ38, Aβ40 and Aβ42 obtained.
The optical density was finally measured at 490 nm in a microELISA reader (sold by BioTek Instrument, reference E1 800, Gen 5 software).
The EC50 of the molecules tested were thus calculated.

N2a-APP695 cells = assay: MTS cell viability assay in the same wells as the ELISA; conditions: MTS assay, N2a-APP695 cells; for Toxicity: class symbol; for Toxicity (concentration in brackets): concentration above which toxic
Method: To measure cell viability, the MTS assay (CellTiter 96® AQueous One Solution Cell Proliferation Assay, Promega) was used in the same wells as the capture ELISA assay. 20µl of MTS reagent (3-(4,5-dimethylthiazol-2-yl)-5-(3-carboxymethoxyphenyl)-2-(4-sulfophenyl)-2H-tetrazolium) was added in each well containing 100µl of media and incubation was then proceeded for 3 hours (37°C, 5% CO2 and 95% humidity). Measurements were made on OD 490Δ630 nm (excitation and emission wavelengths) using a microELISA reader (BioTek Instrument, El 800, Gen 5 software).

Compound	EC50 (Aβ42 production) [µM]	Toxicity (N2a-APP695 cells)	Toxicity (concentration in brackets) (N2a-APP695 cells) [µM]	fold (printed in the EC50 cell) (Aβ42 production; Aβ42 production) [fold]
CC(C)n1cnc2c(N(C)Cc3ccccc3)nc(N)nc21 [Aftin-1, N6-benzyl-9-isopropyl-N6-methyl-purine-2,6-diamine]	20	+	–	–
CN(Cc1ccccc1)c1nc(N)nc2c1ncn2C1CCCC1 [Aftin-2, N6-Benzyl-9-cyclopentyl-N6-methyl-purine-2,6-diamine]	11	- ("-" means that the tested compound is non toxic with a concentration higher than 100 µM)	–	–
CC[C@H](CO)Nc1nc(OCc2ccccc2)c2ncn(C(C)C)c2n1 [Aftin-3]	13	- ("-" means that the tested compound is non toxic with a concentration higher than 100 µM)	–	–
CC[C@H](CO)Nc1nc(N(C)Cc2ccccc2)c2ncn(C(C)C)c2n1 [Aftin-4, N6-methyl-roscovitine]	10	+	> 31	–
CN(Cc1ccccc1)c1nc(N)nc2[nH]cnc12 [Compound 1, reference compound]	100	- ("-" means that the tested compound is non toxic with a concentration higher than 100 µM)	–	–
CC[C@H](CO)Nc1nc(NCc2ccccc2)c2ncn(C(C)C)c2n1 [Compound 2, reference compound]	–	- ("-" means that the tested compound is non toxic with a concentration higher than 100 µM)	–	–
CC(C)n1cnc2c(N(C)Cc3ccccc3)ncnc21 [Compound 9, N-benzyl-9-isopropyl-N-methyl-purin-6-amine]	12	- ("-" means that the tested compound is non toxic with a concentration higher than 100 µM)	–	–
CN(Cc1ccccc1)c1ncnc2c1ncn2C1CCCC1 [Compound 12]	12	+	> 31	–
CC[C@H](CO)Nc1nc(N(CC)Cc2ccccc2)c2ncn(C(C)C)c2n1 [Compound 13]	3.8	+	> 31	–
CC[C@H](CO)Nc1nc(N(C)Cc2ccccc2)c2ncn(C3CCCC3)c2n1 [Compound 14]	2.7	+	> 20	–
CCN(Cc1ccccc1)c1nc(N[C@@H](CO)C(C)C)nc2c1ncn2C1CCCC1 [Compound 15]	0.5	+	–	–
CC[C@H](CO)Nc1nc(N(C)Cc2ccc(-c3ccccn3)cc2)c2ncn(C(C)C)c2n1 [Compound 16]	3.2	+	> 31	–
CC[C@H](CO)Nc1nc(N(C)Cc2ccccc2)c2ncn(Cc3ccccc3)c2n1 [Compound 17]	0.7	+	> 12	–
CC[C@H](CO)Nc1nc(N(CC)Cc2ccccc2)c2ncn(Cc3ccccc3)c2n1 [Compound 18]	1.3	+	> 12	–
CC[C@H](CO)Nc1nc(N2CCc3ccccc32)c2ncn(C(C)C)c2n1 [Compound 19]	8	+	> 31	–
CCCN(Cc1ccccc1)c1nc(N[C@H](CC)CO)nc2c1ncn2C(C)C [Compound 20]	1.35	+	> 12	–
CC[C@H](CO)Nc1nc(N(C)Cc2ccc(-c3ccccc3)cc2)c2ncn(C(C)C)c2n1 [Compound 21]	0.45	+	–	–
CCN(CC)CCNc1nc(N(CC)Cc2ccccc2)c2ncn(C3CCCC3)c2n1 [Compound 22]	0.8	+	> 12	–

Compound	EC50 (Aβ42 production) [µM]	Toxicity (N2a-APP695 cells)	Toxicity (concentration in brackets) (N2a-APP695 cells) [µM]	fold (printed in the EC50 cell) (Aβ42 production; Aβ42 production) [fold]
CC[C@H](CO)Nc1nc(N(Cc2ccccc2)C(C)C)c2ncn(C(C)C)c2n1 [Compound 23, (2R)-2-[[6-[benzyl(isopropyl)amino]-9-isopropylpurin-2-yl]amino]butan-1-ol]	2.5	+	> 12	–
CC[C@H](CO)Nc1nc(N2CCc3ccccc3C2)c2ncn(C(C)C)c2n1 [Compound 24]	3.5	+	> 31	–
CC[C@@H](CO)Nc1nc(N(C)c2ccccc2)c2ncn(C(C)C)c2n1 [Compound 26]	17	- ("-" means that the tested compound is non toxic with a concentration higher than 100 µM)	–	–
CC[C@@H](CO)Nc1nc(N(C)Cc2ccc(-c3ccccn3)cc2)c2ncn(C(C)C)c2n1 [Compound 28]	2.8	+	> 12	–
CC(C)n1cnc2c(N(C)Cc3ccc(-c4ccccn4)cc3)nc(NC[C@H](O)CO)nc21 [Compound 29]	10	- ("-" means that the tested compound is non toxic with a concentration higher than 100 µM)	–	–
CC[C@H](CO)Nc1nc(N(C)Cc2ccc(C(=O)NCCOCCOCCOCCOCCOCCN)cc2)c2ncn(C(C)C)c2n1 [Compound 30]	> 100	- ("-" means that the tested compound is non toxic with a concentration higher than 100 µM)	–	–
CC[C@@H](CO)Nc1nc(OCc2ccccc2)c2ncn(C(C)C)c2n1 [Compound 32]	21	- ("-" means that the tested compound is non toxic with a concentration higher than 100 µM)	–	–
CC(C)n1cnc2c(N(C)Cc3ccc(F)cc3)nc(NC3CCNCC3)nc21 [Compound 33]	10	+	> 12	2
CCC(CO)Nc1nc(N(C)c2ccc(F)cc2)c2ncn(C(C)C)c2n1 (stereo not shown) [Compound 34]	30	- ("-" means that the tested compound is non toxic with a concentration higher than 100 µM)	–	–
CC[C@H](CO)Nc1nc(N(C)Cc2cccc(OC)c2)c2ncn(C(C)C)c2n1 [Compound 36]	105	+	> 100	–
CC[C@@H](CO)Nc1nc(N(C)Cc2ccc(F)cc2)c2ncn(C(C)C)c2n1 [Compound 37]	52	+	> 12	–
CC[C@H](CO)Nc1nc(N(C)Cc2ccc(F)cc2)c2ncn(C(C)C)c2n1 [Compound 38]	55	+	> 12	–
CC(C)n1cnc2c(N(C)c3ccccc3)nc(N(CCO)CCO)nc21 [Compound 39]	> 150	–	–	–
CC(C)n1cnc2c(N(C)c3ccccc3)nc(NCCO)nc21 [Compound 40]	> 150	- ("-" means that the tested compound is non toxic with a concentration higher than 100 µM)	–	–
CC[C@H](CO)Nc1nc(N(CC)c2ccccc2)c2ncn(C(C)C)c2n1 [Compound 42]	25	+	> 100	–
CC[C@H](CO)Nc1nc(N(C)c2ccc(OC)cc2)c2ncn(C(C)C)c2n1 [Compound 44, (2R)-2-[[9-isopropyl-6-[(4-methoxyphenyl)-methyl-amino]purin-2-yl]amino]butan-1-ol]	4.5	+	> 21	–
CC(C)n1cnc2c(OCc3ccccc3)nc(OCc3ccccc3)nc21 [Compound 46, 9-Iso-propyl-2,6-dibenzyloxypurine]	3.5	+	> 12	–
CC[C@H](CO)Nc1nc(SCc2ccccc2)c2ncn(C(C)C)c2n1 [Compound 47, (2R)-2-[(6-benzylsulfanyl-9-isopropyl-purin-2-yl)amino]butan-1-ol]	> 10	+	–	–
